Source: US20230277550A1, “Methods for Treating Respiratory Diseases Characterized by Mucus Hypersecretion” (The Board of Trustees of the Leland Stanford Junior …, priority 2020, published 2023)

Experiments:
[1] = system: Primary human airway epithelial cells; assay: MCC formation with a variety of GSIs at high and low concentrations; assay type: cell-based; conditions: for epithelial structure: high concentrations; for epithelial structure / multiciliated cell formation: ALI+0 to +21d; for multiciliated cell formation: low concentration; for Notch signaling and differentiation towards MCCs: nanomolar range, human nasal epithelial cells
[2] = system: Mature (ALI+30d) primary cystic fibrosis human airway epithelial cells; assay: DAPT treatment of mature cystic fibrosis cultures; assay type: cell-based; conditions: mature CF cultures, one week (ALI+30 to +37d)
Procedure: Mature (ALI+30d) primary cystic fibrosis human airway epithelial cells were treated with DAPT for one week (ALI+30 to +37d), then labeled with anti-acetylated α-Tubulin (green) and ECAD (red) antibodies.

[3] = system: Primary human airway epithelial cells; assay: MCC formation by timing of GSI treatment (proliferation, differentiation, continuous); assay type: cell-based
Procedure: Primary human airway epithelial cells were treated with DAPT and LY45139: i) during proliferation only (ALI-5 to -1d), ii) during differentiation only (ALI+0 to +21d) or iii) continuously during the entire culture duration, followed by labeling at ALI+21d with anti-acetylated α-Tubulin (green) and ECAD (red) antibodies.

[4] = system: Mature (ALI+30d) primary human airway epithelial cells; assay: GSI treatment of mature (ALI+30d) cultures; assay type: cell-based; conditions: mature cultures treated one (ALI+30 to +37d) or two weeks (ALI+30 to +44d)
Procedure: Mature (ALI+30d) primary human airway epithelial cells were treated with DAPT and semagacestat for one (ALI+30 to +37d) or two weeks (ALI+30 to +44d), then labeled with anti-acetylated α-Tubulin (green) and ECAD (red) antibodies.

[5] = system: primary human epithelial cells; assay: Ciliary beat frequency and cilium length with DAPT; assay type: cell-based; conditions: cells differentiated in the presence of DAPT vs untreated
[6] = system: healthy and CF primary human airway epithelial cultures; assay: SEM of cilia in healthy and CF cultures; assay type: cell-based; conditions: healthy and CF cultures under DAPT vs untreated healthy cultures
[7] = system: Primary human airway epithelial cells; assay: GSI treatment from the apical or basal surface; assay type: cell-based; conditions: ALI+0 to +21d, apical or basal application
Procedure: Primary human airway epithelial cells were treated with DAPT and LY45139 during differentiation only (ALI+0 to +21d) from either the apical or basal surface, then labeled at ALI+21d with anti-acetylated α-Tubulin (green) and ECAD (red) antibodies. […] Apical treatment eliminates the air-liquid interface, which results in the poor epithelial structure and multiciliated cell differentiation in the untreated cultures, which is partially rescued by GSI treatment.

[8] = system: primary human nasal epithelial cells (HNECs); assay: Semagacestat dose response on multiciliated cell (MCC) formation in HNEC ALI cultures; assay type: cell-based; conditions: 1 µM DAPT; p <0.01 by ANOVA with Dunnett's test
Procedure: Air-Liquid Interface (ALI) cultures were prepared as described in Vladar EK, Nayak JV, Milla CE, Axelrod JD. Airway epithelial homeostasis and planar cell polarity signaling depend on multiciliated cell differentiation. JCI Insight. 2016;1(13);e88027. Human nasal epithelial cells (HNECs) were generated from human sinonasal epithelial brushings or from tissue obtained from patients undergoing endoscopic sinus surgery at Stanford Hospital and cultured as described in Vladar et al.
Cultures were treated with varying doses of semagacestat. DAPT (Abcam) was used ([…]) as a positive control for GSI activity. Cultures were labeled at ALI+21d with anti-acetylated α-tubulin (green) and ECAD (red) antibodies to mark cilia and epithelial junctions.
The ratio was defined as MCC number/total luminal cells. Counting was done on one representative image from 5 culture replicates from a single donor.

[9] = system: HNEC cultures from a CF patient; assay: IL-13 induced chronic inflammation model in ALI HNEC cultures; assay type: cell-based, human; conditions: DAPT 1 um, semagacestat 125 nm, days 14-21
Procedure: Administration of IL-13 to ALI cultures induces goblet cell hyperplasia and is a useful model of chronic inflammation. ALI HNEC cultures were prepared as described in Vladar et al. ALI cultures were treated with and without administration of Il-13 on days 7-14. DAPT (1 um), semagacestat (125 nm) or vehicle control were administered on days 14-21. PFA-fixed cultures were stained for Muc5AC (red; mucin producing secretory cells), Acetylated tubulin (green; MCCs) and E-Cadherin (blue to reveal cell boundaries).
HNEC cultures from a CF patient were treated with IL-13 from ALI+7 to 14 to induce inflammation. […] IL-13 treatment increases the percentage of mucin positive secretory cells and decreases the percentage of MCCs.

[10] = system: Primary nasal epithelial cells from two CF donors (F508del homozygotes); assay: Ciliary beat frequency (CBF) in CF donor cultures, MK-0752 and Elexacaftor; assay type: cell-based, human; conditions: MK-0752 125 nM or triple modulator with Elexacaftor 100 nM; p < 0.001
[11] = system: CFTR; assay: CFTR current in Ussing chambers, GSI with or without ETI; assay type: cell-based, human
Procedure: Cells grown at an air liquid interface were mounted on a holding slider and inserted on an Ussing chamber for electrophysiological short circuit current (Isc) measurements. Solutions in the serosal and mucosal bath were prepared so that a chloride gradient was established between both sides. After stable baseline current recordings were obtained, agonists were added in the following order: amiloride (10 µM) to block sodium channel activity, forskolin (10 µM) to stimulate CFTR, Ivacaftor (10 µM) to potentiate CFTR activity, and CFTRinh-172 (20 µM) to block CFTR current. For each agonist signals were monitored until a plateau in current was noted before adding the next agonist. The delta-Isc in response to CFTRinh-172 was used as our main read out for CFTR-mediated chloride transport.
We directly measured CFTR activity in cultures from CF patients treated with GSI with or without well-established effective in vitro doses of Trikafta (Elexcaftor/Tezacaftor/Ivacaftor or “ETI”). Veit, G., et al., JCI (2020) 10.1172/jci.insight.139983. Measurements were performed in Ussing chambers. […] In some individual experiments, there appeared to be a synergistic effect in the combination treatment: GSI alone has no effect but the combination treatment produced a greater response than ETI alone. This effect was not consistently seen, but raised the possibility that synergy might be observed with lower ETI doses.
To examine this further, we tested MK04752 in combination with varying doses of ETI (FIG. 28).

[12] = cited from earlier work

## CCC[C@H](N[C@H]1CCc2cc(F)cc(F)c2C1)C(=O)Nc1cn(C(C)(C)CNCC(C)(C)C)cn1 [nirogacestat, (S)-2-((S)-5,7-difluoro-1,2,3,4-tetrahydronaphthalen-3-ylamino)-N-(1-(2-m-ethyl-1-(neopentylamino)propan-2-yl)-1H-imidazol-4-yl)pentanamide]
[1]
  epithelial structure: disrupted epithelial structure
  multiciliated cell formation: induced multiciliated cell formation
  Notch signaling and differentiation towards MCCs: effective in blocking Notch signaling, driving differentiation towards MCCs

## C[C@H](NC(=O)Cc1cc(F)cc(F)c1)C(=O)NC(C(=O)OC(C)(C)C)c1ccccc1 (some centres unmarked) [DAPT]
[2]
  formation of additional multiciliated cells: induces the formation of additional multiciliated cells in mature cystic fibrosis cultures
[3]; treatment during differentiation (differentiation only ALI+0 to +21d, and continuous)
  MCC cell numbers: increased MCC cell numbers
[3]; treatment during proliferation only (ALI-5 to -1d)
  effect on differentiation: had no effect on differentiation
[4]
  formation of additional multiciliated cells: induces the formation of additional multiciliated cells
[5]
  ciliary beat frequency: modest, but significant increase
  cilium length: no difference
[6]
  structure of multiciliated cells by SEM: indistinguishable from those in untreated healthy cultures
[7]
  ciliated cell formation: induces ciliated cell formation via both apical and basal application
[8]
  ratio MCC number/total luminal cells: significant increases
[9]; after IL-13 (ALI+7 to 14)
  percentage of MCCs: increasing the percentage of MCCs
  percentage of mucin positive secretory cells: decreasing the percentage of mucin positive secretory cells
[9]; controls without IL-13
  percentage of MCCs: increase the percentage off MCCs

## CC(C)(C(=O)NCC(F)(F)C(F)(F)F)C(=O)N[C@@H]1C(=O)Nc2ccccc2-c2ccccc21 [RO-4929097]
[1]
  epithelial structure: disrupted epithelial structure
  multiciliated cell formation: induced multiciliated cell formation
  Notch signaling and differentiation towards MCCs: effective in blocking Notch signaling, driving differentiation towards MCCs

## O=C(O)CC[C@H]1CC[C@@](c2cc(F)ccc2F)(S(=O)(=O)c2ccc(Cl)cc2)CC1 [MK-0752]
[10]
  ciliary beat frequency (CBF) vs control: significant effect in increasing the CBF
[1]
  epithelial structure: disrupted epithelial structure
  multiciliated cell formation: induced multiciliated cell formation
  Notch signaling and differentiation towards MCCs: effective in blocking Notch signaling, driving differentiation towards MCCs
[11]; MK04752 with varying (reduced Elexacaftor) doses of ETI
  CFTR current with suboptimal doses of ETI: suboptimal doses of ETI appear to be potentiated by MK04752
[11]; cultures from CF patients, GSI plus ETI
  CFTR current induced by ETI: Neither LY45139 (FIG. 26) nor MK04752 (FIG. 27) impaired the CFTR current
[12]; 450 to 4,200 mg, three schedules
  most common drug-related toxicities: diarrhea, nausea, vomiting, and fatigue
[12]; weekly dosing
  tolerability: generally well-tolerated
